From PubChem BioAssay AID2060620 (Molecular Pharmacology Branch, DTP, NCI, 2025)

System: 328373-195-R-J1-PDC complex spheroids, viability % test/control
Assay: Anticancer human tumor 328373-195-R-J1-PDC patient-derived head and neck squamous carcinoma cell line growth inhibition [CLK]
Settings: for IC50: curve of first compound; for viability, T/C: stronger effect = lower value; active = viability on the fitted dose curve at most 10% of control; inactive = the rest
How it was run: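 Patient-derived tumor cells grown as complex spheroids with HUVEC endothelial cells and mesenchymal stem cells, treated with drug combinations. Concentrations descend in half-log steps from near clinical Cmax, or from 10 microM if Cmax unknown.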
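Note: spheroids exposed to the agents for 7 days.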

COc1ccc([C@@H](O)c2cc(-c3ncnc4cc(N5CCOCC5)ccc34)c(F)cc2Cl)nn1 + CNC(=O)c1ccc(Nc2nc(OC3CCCC3)c3c(-c4ccc5nc(C)oc5c4)c[nH]c3n2)c(OC)c1
active: viability, T/C (second compound 0.316 µM, first compound 0.0316 µM) 8.21% | viability, T/C (second compound 0.316 µM, first compound 0.1 µM) 8.88% | viability, T/C (second compound 0.316 µM, first compound 0.316 µM) 8.95% | viability, T/C (second compound 0.316 µM, first compound 1 µM) 7.72% | viability, T/C (second compound 0.316 µM, first compound 3.16 µM) 10.2% | viability, T/C (second compound 0.316 µM, first compound 10 µM) 12.2%
< 31.6 nM: IC50 (second compound 0.1 µM) | IC50 (second compound 0.316 µM) | IC50 (second compound 1 µM) | IC50 (second compound 3.16 µM) | IC50 (second compound 10 µM)
3760 nM: IC50 (second compound 0.0316 µM)
inactive: viability, T/C (second compound 0.0316 µM, first compound 0.0316 µM) 51.2% | viability, T/C (second compound 0.0316 µM, first compound 0.1 µM) 56.5% | viability, T/C (second compound 0.0316 µM, first compound 0.316 µM) 43.4% | viability, T/C (second compound 0.0316 µM, first compound 1 µM) 58.7% | viability, T/C (second compound 0.0316 µM, first compound 3.16 µM) 55.4% | viability, T/C (second compound 0.0316 µM, first compound 10 µM) 33.3% | viability, T/C (second compound 0.1 µM, first compound 0.0316 µM) 10.5% | viability, T/C (second compound 0.1 µM, first compound 0.1 µM) 8.48% | viability, T/C (second compound 0.1 µM, first compound 0.316 µM) 12.4% | viability, T/C (second compound 0.1 µM, first compound 1 µM) 10% | viability, T/C (second compound 0.1 µM, first compound 3.16 µM) 9.78% | viability, T/C (second compound 0.1 µM, first compound 10 µM) 12.6% | viability, T/C (second compound 1 µM, first compound 0.0316 µM) 10.3% | viability, T/C (second compound 1 µM, first compound 0.1 µM) 8.67% | viability, T/C (second compound 1 µM, first compound 0.316 µM) 10.8% | viability, T/C (second compound 1 µM, first compound 1 µM) 9.89% | viability, T/C (second compound 1 µM, first compound 3.16 µM) 9.31% | viability, T/C (second compound 1 µM, first compound 10 µM) 12.8% | viability, T/C (second compound 3.16 µM, first compound 0.0316 µM) 9.71% | viability, T/C (second compound 3.16 µM, first compound 0.1 µM) 9.31% | viability, T/C (second compound 3.16 µM, first compound 0.316 µM) 9.23% | viability, T/C (second compound 3.16 µM, first compound 1 µM) 9.82% | viability, T/C (second compound 3.16 µM, first compound 3.16 µM) 10.5% | viability, T/C (second compound 3.16 µM, first compound 10 µM) 13.2% | viability, T/C (second compound 10 µM, first compound 0.0316 µM) 10.6% | viability, T/C (second compound 10 µM, first compound 0.1 µM) 10.8% | viability, T/C (second compound 10 µM, first compound 0.316 µM) 8.9% | viability, T/C (second compound 10 µM, first compound 1 µM) 13.1% | viability, T/C (second compound 10 µM, first compound 3.16 µM) 12.2% | viability, T/C (second compound 10 µM, first compound 10 µM) 12.5%
